Structures are written as SMILES.

The nature of one series: method code SF-AS, from DOI: 10.1007/s001289900158, PMID: 8661463.
Details: not given
The term logP denotes the decadic logarithm of the partition coefficient of the neutral form, usually between octanol and water. A high value points to a more lipophilic compound. For `O=[N+]([O-])c1ccc(Cl)nc1Cl`, the logP is 1.96.

Assay in a further series: not given
To be noted: pH 7.4.
As a reminder, the logD is lipophilicity at a set pH, counting ionised and neutral species. High values mean a more lipophilic compound, low ones a more hydrophilic compound. In turn, `COc1cc([N+](=O)[O-])cc(C=CC(=O)N2CCC3(CC2)C(=O)NCN3c2ccccc2)c1OC` came in with a pH-dependent lipophilicity (logD) of 3. On the same count and under the same terms, under `COc1cc([N+](=O)[O-])cc(CC(=O)N2CCC(n3c(=O)[nH]c4ccccc43)CC2)c1OC` stands 2.4.

In turn, `O=C(CCc1cccc2c1OCO2)N1CCC2(CC1)C(=O)NCN2c1ccccc1` came in with a logD of 2.8. Still for that read-out and setting: under `O=C(OCc1ccc2snnc2c1)N1CCC2(CC1)C(=O)NCN2c1ccccc1` stands 3.4; under `O=C(Cc1c[nH]c2ccc(Br)cc12)N1CCN(c2ccc([N+](=O)[O-])c3nonc23)CC1`, 3.

Assay in a further series: not given
Details: not given
Take `FC(F)(F)C(F)(F)Cl`: the logP was 2.23. `FCC(F)(Cl)Cl` displayed a logP of 1.51.

With `FC(F)(Cl)C(F)(F)Cl`, the lipophilicity (logP) came to 2.66. Same read-out and setting: then `FC(F)(Cl)Cl`, with 1.93.

Assay in the next series: not given
Details: not given
This is another data set of the same source.
Turning to `CCCCCCCCCCOc1ccc(OC(=O)Cn2ccc3cc(C(=O)O)ccc32)cc1`, the lipophilicity (logP) came out at 7.1.

For `CCCCCCCCc1ccc(OC(=O)Cn2ccc3cc(C(N)=O)ccc32)cc1`, the logP was 5.5. Still for that read-out and setting: then `O=C(Cn1ccc2cc(C(=O)O)ccc21)Oc1ccc(-c2ccccc2)cc1`, with 3.2; and `NC(=O)c1ccc2c(ccn2CC(=O)Oc2ccccc2-c2ccccc2)c1`, with 2.3. Same read-out and setting: then `O=C(Cn1ccc2cc(C(=O)O)ccc21)Oc1cccc(-c2ccccc2)c1`, with 3.1.

Another series in a line: method code SF-HPLC, from DOI: 10.1002/jlac.1995199512305.
Details: not given
`Cc1cn(C2CC(N=[N+]=[N-])C(COP(=O)(OCC3OC(n4cc(C)c(=O)[nH]c4=O)CC3N=[N+]=[N-])C(O)c3cccc([N+](=O)[O-])c3)O2)c(=O)[nH]c1=O` (stereo not drawn) returned a logP of 0.79.

For the compound `Cc1cn(C2CC(N=[N+]=[N-])C(COP(=O)(OCC3OC(n4cc(C)c(=O)[nH]c4=O)CC3N=[N+]=[N-])C(O)c3c([N+](=O)[O-])cccc3[N+](=O)[O-])O2)c(=O)[nH]c1=O` (stereo not drawn), the logP came out at 0.73. The logP values of the last two compounds are within 0.2 log units of each other. The same measure, in the same setting: then `Cc1cn(C2CC(N=[N+]=[N-])C(COP(=O)(OCC3OC(n4cc(C)c(=O)[nH]c4=O)CC3N=[N+]=[N-])C(O)c3ccccc3)O2)c(=O)[nH]c1=O` (stereo not drawn), with 0.79; and `Cc1cn(C2CC(N=[N+]=[N-])C(COP(=O)(OCC3OC(n4cc(C)c(=O)[nH]c4=O)CC3N=[N+]=[N-])C(O)c3ccc(C#N)cc3)O2)c(=O)[nH]c1=O` (stereo not drawn), with 0.49. On the same count and under the same terms, under `Cc1cn(C2CC(N=[N+]=[N-])C(COP(=O)(OCC3OC(n4cc(C)c(=O)[nH]c4=O)CC3N=[N+]=[N-])C(O)c3ccccc3[N+](=O)[O-])O2)c(=O)[nH]c1=O` (stereo not drawn) stands 0.79.

Assay in the next series: not given
Details: not given
The source holds these as a separate data set.
`CC(C)C[N+](=O)[O-]` returned a logP of 1.4. Same read-out and setting: then `CC(C)[N+](=O)[O-]`, with 0.8; and `CCC(C)[N+](=O)[O-]` (stereo not drawn), with 1.2. On the same count and under the same terms, under `CCCCCC[N+](=O)[O-]` stands 2.7.

The next series in a line: method code SF-AS, from PMID: 640322. The following applies: pH 4.0.
Take `NC(=O)N(CCCN(N=O)C(N)=O)N=O`: the logD is -0.3. On the same count and under the same terms, under `CC(C)CN(N=O)C(N)=O` stands 1.04; under `CCN(N=O)C(N)=O`, -0.15. Same read-out and setting: then `CCCN(N=O)C(N)=O`, with 0.3.

The nature of the next series: method code SF, from DOI: 10.1021/jm00167a034, PMID: 2329572. The following applies: pH 7.4.
For `Cc1cn(C2CC(N=[N+]=[N-])C(COC(=O)C(N)Cc3ccccc3)O2)c(=O)[nH]c1=O` (stereo not drawn), the pH-dependent lipophilicity (logD) came out at 0.52.

In the case of `Cc1cn([C@H]2C[C@H](N=[N+]=[N-])[C@@H](COC(=O)CN3CCOCC3)O2)c(=O)[nH]c1=O`, the logD worked out at 0.34. Still for that read-out and setting: then `Cc1cn([C@H]2C[C@H](N=[N+]=[N-])[C@@H](COC(=O)CN3CCN(c4ccccc4)CC3)O2)c(=O)[nH]c1=O`, with 0.96.

For `CC1=C(/C=C/C(C)=C/C=C/C(C)=C/C(=O)OC[C@H]2O[C@@H](n3cc(C)c(=O)[nH]c3=O)C[C@@H]2N=[N+]=[N-])C(C)(C)CCC1`, the logD is 1.25.

Turning to `Cc1cn([C@H]2C[C@H](N=[N+]=[N-])[C@@H](COC(=O)C3=CN(C)C=CC3)O2)c(=O)[nH]c1=O`, the logD stood at 0.86.

The next series in a line: from Jayashree, Bs.; Sahu, A.; MM, S.; Venugopala, K. (2006). Synthesis, characterization and determination of partition coefficient of some triazolo thiadiazinyl chlorocoumarin derivatives for their …. The following applies: pH 7.4.
In turn, `O=c1oc2ccc(Cl)cc2cc1C1=Nn2c(nnc2-c2ccccc2Cl)SC1` returned a logD of 1.53. On the same count and under the same terms, under `O=c1oc2ccc(Cl)cc2cc1C1=Nn2c(nnc2-c2ccc(Cl)cc2)SC1` stands 1.49; under `O=c1oc2ccc(Cl)cc2cc1C1=Nn2c(nnc2-c2ccncc2)SC1`, 1.18; under `O=c1oc2ccc(Cl)cc2cc1C1=Nn2c(COc3ccc(Cl)cc3)nnc2SC1`, 1.33. Same read-out and setting: under `O=c1oc2ccc(Cl)cc2cc1C1=Nn2c(nnc2-c2ccc(Br)cc2)SC1` stands 1.51.

Assay in another series: not given
Details: not given
This is another data set of the same source.
The compound `CCN1C=CCC(C(=O)OC2CCC3C4CCc5cc(O)ccc5C4CC23C)=C1` (stereo not drawn) gave a logP of 4.66. The same measure, in the same setting: under `CC12CC3c4ccc(O)cc4CCC3C1CCC2OC(=O)C1=CN(CCCO)C=CC1` (stereo not drawn) stands 4.89. The compound `CCCN1C=CCC(C(=O)OC2CCC3C4CCc5cc(O)ccc5C4CC23C)=C1` (stereo not drawn) registered a logP of 4.79. Still for that read-out and setting: under `CCCCCCN1C=CCC(C(=O)OC2CCC3C4CCc5cc(O)ccc5C4CC23C)=C1` (stereo not drawn) stands 5.07; under `CC12CC3c4ccc(O)cc4CCC3C1CCC2OC(=O)C1=CN(Cc2ccccc2)C=CC1` (stereo not drawn), 5.39.

Another series can be described thus: method code SF-HPLC, from DOI: 10.1023/a:1015956705293, PMID: 3244625.
Details: not given
Take `CN(C)C(=O)CCC(=O)OCC(=O)[C@@]1(O)CC[C@H]2[C@@H]3CCC4=CC(=O)CC[C@]4(C)[C@H]3[C@@H](O)C[C@@]21C`: the logP amounted to 2.03. Still for that read-out and setting: then `COC(=O)CCC(=O)OCC(=O)C1(O)CCC2C3CCC4=CC(=O)CCC4(C)C3C(O)CC21C` (stereo not drawn), with 2.58. Still for that read-out and setting: under `C[C@]12CCC(=O)C=C1CC[C@@H]1[C@@H]2[C@@H](O)C[C@@]2(C)[C@H]1CC[C@]2(O)C(=O)COC(=O)CCCCCO` stands 2.79.

The same series, now with this note: pH 2.5.
Regarding `CC12CCC(=O)C=C1CCC1C2C(O)CC2(C)C1CCC2(O)C(=O)COC(=O)CCC(=O)O` (stereo not drawn), the logD stood at 2.11.

Staying with this series, now noted: pH 3.3.
Compound `C[C@]12CCC(=O)C=C1CC[C@@H]1[C@@H]2[C@@H](O)C[C@@]2(C)[C@H]1CC[C@]2(O)C(=O)COC(=O)CCCCCC(=O)O` displayed a logD of 3.26.

The nature of the next series: method code SF, from DOI: 10.1021/jm020886c, PMID: 12852752. The following applies: pH 7.4.
For the compound `O=c1[nH]c2c(O)ccc(CCNCCCS(=O)(=O)CCOCCc3ccccc3)c2s1`, the logD was 1.13. On the same count and under the same terms, under `CN(CCCNCCc1ccc(O)c2[nH]c(=O)sc12)S(=O)(=O)CCCOCCc1ccccc1` stands 1.24; under `CN(CCCSCCOCCc1ccccc1)CCc1ccc(O)c2[nH]c(=O)sc12`, 3.53.

Consider `O=c1[nH]c2c(O)ccc(CCNCCCS(=O)(=O)CCCOCc3ccccc3)c2s1`, for which the logD is 1.34. The compound `CC(C)(CNCCc1ccc(O)c2[nH]c(=O)sc12)CSCCOCCc1ccccc1` gave a logD of 3.44.

A short description of the next series: method code SF-GLC, from DOI: 10.1021/es60155a010.
Details: not given
Compound `CC(C)CCCCCCCOP(=O)(Oc1ccccc1)Oc1ccccc1` returned a logP of 5.44. The same measure, in the same setting: under `CCCCC(CC)COP(=O)(OCC(CC)CCCC)OCC(CC)CCCC` (stereo not drawn) stands 4.23; under `Cc1ccc(OP(=O)(Oc2ccc(C)cc2)Oc2ccc(C)cc2)cc1`, 5.11.

As for `CC(C)c1ccc(OP(=O)(Oc2ccccc2)Oc2ccccc2)cc1`, the logP is 5.31. Still for that read-out and setting: then `CC(C)(C)c1ccc(OP(=O)(Oc2ccccc2)Oc2ccccc2)cc1`, with 5.12.

The next series can be described thus: method code SF-AS, from DOI: 10.1211/0022357001777513, PMID: 11186244. To be noted: pH 7.3.
With `OCC(O)COc1ccccc1-c1c2nc(c(-c3ccccc3OCC(O)CO)c3ccc([nH]3)c(-c3ccccc3OCC(O)CO)c3nc(c(-c4ccccc4OCC(O)CO)c4ccc1[nH]4)C=C3)C=C2` (stereo not drawn), the logD worked out at 4.67. Same read-out and setting: then `Oc1cccc(-c2c3nc(c(-c4cccc(O)c4F)c4ccc([nH]4)c(-c4cccc(O)c4F)c4nc(c(-c5cccc(O)c5F)c5ccc2[nH]5)C=C4)C=C3)c1F`, with 4.6; and `Oc1ccccc1-c1c2nc(c(-c3ccccc3O)c3ccc([nH]3)c(-c3ccccc3O)c3nc(c(-c4ccccc4O)c4ccc1[nH]4)C=C3)C=C2`, with 4.58; and `OCC(O)COc1c(F)ccc(-c2c3nc(c(-c4ccc(F)c(OCC(O)CO)c4F)c4ccc([nH]4)c(-c4ccc(F)c(OCC(O)CO)c4F)c4nc(c(-c5ccc(F)c(OCC(O)CO)c5F)c5ccc2[nH]5)C=C4)C=C3)c1F` (stereo not drawn), with 2.51.

For `OCC(O)COc1ccc(-c2c3nc(c(-c4ccc(OCC(O)CO)cc4)c4ccc([nH]4)c(-c4ccc(OCC(O)CO)cc4)c4nc(c(-c5ccc(OCC(O)CO)cc5)c5ccc2[nH]5)C=C4)C=C3)cc1` (stereo not drawn), the logD turned out to be 4.93.

Assay in another series: not given
Details: not given
This is another data set of the same source.
`CCc1c(Sc2ccccc2)n(COCc2ccccc2)c(=O)[nH]c1=O` registered a lipophilicity (logP) of 3.23. The same measure, in the same setting: then `CCOCn1c(Sc2ccccc2)c(CC)c(=O)[nH]c1=O`, with 2.11; and `CCOCn1c(Cc2cc(C)cc(C)c2)c(CC)c(=O)[nH]c1=O`, with 2.78. On the same count and under the same terms, under `CCOCn1c(S)nc(=O)c(CC)c1Sc1ccccc1` stands 3.05; under `CCOCn1c(Cc2ccccc2)c(C(C)C)c(=O)[nH]c1=O`, 2.35.
